From the NIST ThermoML archive (doi:10.1016/j.jct.2012.08.010)

Assay: refractive index (Na D-line) (dimensionless); φn = volume fraction of the nth substance listed
Settings: 101 kPa, Liquid, Standard Abbe refractometry

C=C[Si]1(C)O[Si](C)(C=C)O[Si](C)(C=C)O[Si](C)(C=C)O1 (stereo not given) [2,4,6,8-tetramethyl-2,4,6,8-tetravinylcycloterasiloxane] + Cc1ccc(C)cc1
Settings	refractive index
288.15 K, φ1 = 0.13	1.49061
288.15 K, φ1 = 0.2483	1.48349
288.15 K, φ1 = 0.3379	1.47804
288.15 K, φ1 = 0.4151	1.47284
288.15 K, φ1 = 0.4853	1.46901
288.15 K, φ1 = 0.5501	1.46502
288.15 K, φ1 = 0.5978	1.46207
288.15 K, φ1 = 0.6522	1.45876
288.15 K, φ1 = 0.6974	1.45592
288.15 K, φ1 = 0.738	1.45339
288.15 K, φ1 = 0.7753	1.45103
288.15 K, φ1 = 0.8083	1.44898
288.15 K, φ1 = 0.8395	1.44696
288.15 K, φ1 = 0.8652	1.44534
288.15 K, φ1 = 0.8938	1.44353
288.15 K, φ1 = 0.9184	1.44195
288.15 K, φ1 = 0.9358	1.44086
288.15 K, φ1 = 0.9803	1.43802
288.15 K, φ1 = 1	1.43674
298.15 K, φ1 = 0.13	1.48533
298.15 K, φ1 = 0.2483	1.47825
298.15 K, φ1 = 0.338	1.47286
298.15 K, φ1 = 0.4151	1.46772
298.15 K, φ1 = 0.4854	1.46393
298.15 K, φ1 = 0.5501	1.45998
298.15 K, φ1 = 0.5979	1.45705
298.15 K, φ1 = 0.6522	1.45378
298.15 K, φ1 = 0.6975	1.45098
298.15 K, φ1 = 0.7381	1.44845
298.15 K, φ1 = 0.7754	1.44612
298.15 K, φ1 = 0.8084	1.44409
298.15 K, φ1 = 0.8396	1.44211
298.15 K, φ1 = 0.8653	1.44053
298.15 K, φ1 = 0.8939	1.43869
298.15 K, φ1 = 0.9185	1.43716
298.15 K, φ1 = 0.9358	1.43605
298.15 K, φ1 = 0.9803	1.43326
298.15 K, φ1 = 1	1.43202
308.15 K, φ1 = 0.13	1.47996
308.15 K, φ1 = 0.2484	1.47298
308.15 K, φ1 = 0.338	1.46767
308.15 K, φ1 = 0.4152	1.46256
308.15 K, φ1 = 0.4855	1.45883
308.15 K, φ1 = 0.5502	1.45494
308.15 K, φ1 = 0.5979	1.45204
308.15 K, φ1 = 0.6523	1.44878
308.15 K, φ1 = 0.6975	1.446
308.15 K, φ1 = 0.7381	1.44353
308.15 K, φ1 = 0.7754	1.44126
308.15 K, φ1 = 0.8084	1.4392
308.15 K, φ1 = 0.8396	1.43729
308.15 K, φ1 = 0.8653	1.4357
308.15 K, φ1 = 0.8939	1.43391
308.15 K, φ1 = 0.9185	1.43239
308.15 K, φ1 = 0.9359	1.43132
308.15 K, φ1 = 0.9803	1.42853
308.15 K, φ1 = 1	1.4273
318.15 K, φ1 = 0.1301	1.47462
318.15 K, φ1 = 0.2484	1.46772
318.15 K, φ1 = 0.3381	1.46245
318.15 K, φ1 = 0.4152	1.45742
318.15 K, φ1 = 0.4855	1.45373
318.15 K, φ1 = 0.5503	1.4499
318.15 K, φ1 = 0.598	1.44702
318.15 K, φ1 = 0.6523	1.4438
318.15 K, φ1 = 0.6976	1.44108
318.15 K, φ1 = 0.7381	1.43861
318.15 K, φ1 = 0.7755	1.43636
318.15 K, φ1 = 0.8084	1.43432
318.15 K, φ1 = 0.8396	1.43244
318.15 K, φ1 = 0.8653	1.43087
318.15 K, φ1 = 0.8939	1.42911
318.15 K, φ1 = 0.9185	1.42761
318.15 K, φ1 = 0.9359	1.42653
318.15 K, φ1 = 0.9803	1.42379
318.15 K, φ1 = 1	1.42257
328.15 K, φ1 = 0.1301	1.46923
328.15 K, φ1 = 0.2484	1.46244
328.15 K, φ1 = 0.3381	1.45725
328.15 K, φ1 = 0.4152	1.45229
328.15 K, φ1 = 0.4855	1.44864
328.15 K, φ1 = 0.5503	1.44483
328.15 K, φ1 = 0.598	1.44202
328.15 K, φ1 = 0.6523	1.43879
328.15 K, φ1 = 0.6976	1.43612
328.15 K, φ1 = 0.7382	1.43369
328.15 K, φ1 = 0.7755	1.43148
328.15 K, φ1 = 0.8085	1.42949
328.15 K, φ1 = 0.8396	1.42761
328.15 K, φ1 = 0.8653	1.42605
328.15 K, φ1 = 0.8939	1.42343
328.15 K, φ1 = 0.9185	1.42282
328.15 K, φ1 = 0.9359	1.42178
328.15 K, φ1 = 0.9803	1.41906
328.15 K, φ1 = 1	1.41785
